{"source": "patent US20250195510A1", "about": "“NOVEL METHODS” (priority 2022, published 2025)", "key": {"Sprague-Dawley rats [1]": {"system": "Sprague-Dawley rats", "experiment": "Novelty Suppressed Feeding Test (NSFT)", "type": "in vivo, rat", "details": "naïve rats, Luma 1 mg/kg IP days 1 and 3, no LPS; control 657.8", "protocol": "(§1) Behavioral Evaluation. All behavioral tests are performed in the morning with adult male Sprague-Dawley rats (n=9-11 per group for the experiments with LPS, and n=13-14 per group for the naïve rats).\nNovelty Suppressed Feeding Test (NSFT). This test measures consumption of a familiar food in a novel environment, relying on rodents' aversion to eating in a novel environment after a period of food deprivation (Ramaker and Dulawa, “Identifying fast-onset antidepressants using rodent models,” Mol. Psychiatry 22:656-665 (2017)). Rats are food-deprived overnight and placed in an open field (76.5×76.5×40 cm^3) with a small amount of food pellets (6 pellets total). At the time of the test, rats are exposed to the open field for the first time (novelty) and allowed to explore it for a maximum of 15 minutes under red light. The latency for the animal to approach the food pellets and take its first bite is manually scored. A home cage feeding test (HCFT) is performed afterwards to ensure latency measured in NSFT is not a matter of difference in hunger. A home cage food intake analysis evaluated the amount of food eaten (in grams) over a period of 10 minutes following the end of the entire test session.\nBasal levels of anxiety are also tested using 2 commonly used tests, NSFT and novelty induced hypophagia (NIH), in the absence of LPS. […]"}, "Sprague-Dawley rats [2]": {"system": "Sprague-Dawley rats", "experiment": "Open Field Test (OFT), locomotion", "type": "in vivo, rat", "protocol": "as §1\nOpen Field Test (OFT). Rats are placed in an open field box (76.5×76.5×40 cm^3) under dim lighting and locomotor activity over a 10 minute period is measured using ANY-Maze Software (Stoelting Co., Wood Dale, IL)."}, "[3]": {"system": "Serum cytokine concentration", "experiment": "Serum cytokine protein (Multiplex MSD V-Plex) after LPS and lumateperone", "type": "in vivo, mouse", "protocol": "All other reagents are obtained in the highest purity available from Sigma-Aldrich (St. Louis, MO) unless otherwise noted. […] Sigma-Aldrich, ref #0127: B8) diluted in 0.9% injectable saline while control group animals receive injections of all vehicles matching the experimental conditions. […] Tissue Collection. […] Rats are euthanized 18 hours after LPS injection for sample collection. Hippocampi from mice and rats are rapidly dissected under RNAse-free conditions and placed in 1.5 mL Eppendorf tubes. When appropriate, samples are snap frozen in liquid nitrogen prior to storage at −80° C. until further analysis. […] Multiplex Assays. […] All samples are run in duplicates or triplicates according to manufacturer instructions and analyzed with MSD Discovery Workbench software (Meso Scale Diagnostics). […] An additional experimental group receiving an injection with lumateperone alone is included as an additional control. Protein concentration is measured using the Multiplex MSD assay V-Plex technology. Results are expressed in pg/mL, except for IL-6, which is measured in ng/mL."}, "Corticosterone": {"system": "Corticosterone", "experiment": "Serum corticosterone (ELISA) after acute restraint stress", "type": "in vivo, mouse", "details": "restraint stress 2 h + Luma 3 mg/kg IP; control 22.65, stressed 238.5", "protocol": "Restraint Stress Protocol.\nUsing similar procedures as described above, serum corticosterone levels and hippocampal Cldn5 mRNA expression are measured as well (corticosterone is measured using a commercial ELISA kit)."}}, "data": [{"compound": "CN1CCN2c3c(cccc31)[C@@H]1CN(CCCC(=O)c3ccc(F)cc3)CC[C@@H]12", "note": "[Lumateperone, 4-((6bR,10aS)-3-methyl-2,3,6b,9,10,10a-hexahydro-1H-pyrido[3′,4′: 4,5]pyrrolo[1,2,3-de]quinoxaline-8 (7H)-yl)-1-(4-fluorophenyl)-1-butanone]", "values": [{"measurement": "NSFT latency to feed", "setting": "Sprague-Dawley rats [1]", "result": 507.9, "unit": "s"}, {"measurement": "OFT locomotion", "setting": "Sprague-Dawley rats [2]; naïve rats, Luma 1 mg/kg IP days 1 and 3, control 17.2", "result": 32.8, "unit": "m"}, {"measurement": "OFT locomotion (distance travelled)", "setting": "Sprague-Dawley rats [2]; open field track length, rats, LPS 1 mg/kg SC + Luma 1 mg/kg IP, control 13.29, LPS + Vehicle 12.81", "result": 12.27, "unit": "meters"}, {"measurement": "Serum IL-1b concentration", "setting": "[3]; LPS 500 μg/kg + Luma 3 mg/kg, LPS alone 6.27", "result": 2.69, "unit": "pg/mL"}, {"measurement": "Serum IL-6 concentration", "setting": "[3]; LPS 500 μg/kg + Luma 3 mg/kg, LPS alone 14.52", "result": 1.49, "unit": "ng/mL"}, {"measurement": "Serum TNF-alpha concentration", "setting": "[3]; LPS 500 μg/kg + Luma 3 mg/kg, LPS alone 335.3", "result": 56.33, "unit": "pg/mL"}, {"measurement": "Serum IL-10 concentration", "setting": "[3]; LPS 500 μg/kg + Luma 3 mg/kg, LPS alone 980.4", "result": 1014.3, "unit": "pg/mL"}, {"measurement": "Serum IL-6 concentration", "setting": "[3]; Luma 3 mg/kg alone, no LPS, saline only 0.51", "result": 0.09, "unit": "ng/mL"}, {"measurement": "Serum IL-1b concentration", "setting": "[3]; Luma 3 mg/kg alone, no LPS, saline only 1.32", "result": 1.47, "unit": "pg/mL"}, {"measurement": "Serum TNF-alpha concentration", "setting": "[3]; Luma 3 mg/kg alone, no LPS, saline only 14.08", "result": 9.38, "unit": "pg/mL"}, {"measurement": "Serum IL-10 concentration", "setting": "[3]; Luma 3 mg/kg alone, no LPS, saline only 24.80", "result": 48.93, "unit": "pg/mL"}, {"measurement": "Serum concentration Corticosterone", "setting": "Corticosterone", "result": 167.3, "unit": "ng/mL"}]}]}
